Patent US9527889B2, “RFamide-related peptides and methods thereof” (THE REGENTS OF THE UNIVERSITY OF MICHIGAN, priority 2010, dated 2016)
“Also recorded” adds a separate entry of the source. Residues, ends and D or L forms follow the SMILES beside them. No end group written: not given here.

Key:
[1] = tested on: isolated adult rabbit cardiac myocytes; assay: Sarcomere shortening in isolated adult rabbit cardiac myocytes; format: cell-based; settings: pacing at 0.5 Hz and 1 Hz
Experimental: FIG. 7. A. Representative sarcomere shortening traces in isolated adult rabbit cardiac myocytes paced at 0.5 Hz. A signal-averaged recording from 10 traces was made in myocytes 1 day after isolation (n=3). Recordings show shortening before and 15 minutes after initiating perfusion with 10^−10 M hRFRP-1 or media (control) at 37° C.
Adult rat and rabbit ventricular cardiac myocytes were isolated as previously described (Westfall, M. V. Et al. (1997), Westfall, M. V. and Borton, A. R. (2003)). Hearts from Sprague-Dawley rats and New Zealand white rabbits were perfused and enzymatically digested to isolate myocytes; the protocol was approved by The University of Michigan University Committee on Use and Care of Animals (UCUCA) in accordance with university and federal regulatory guidelines. […]
Sarcomere shortening was detected using a video-based detection system (IonOptix, MA, USA) as described earlier (Westfall, M. V. and Borton, A. R. (2003)). […] Signal averaged data were analyzed to determine resting sarcomere length, shortening amplitude (peak shortening), shortening rate (departure velocity), and re-lengthening rate (return velocity), as previously described (Westfall, M. V. Et al. (1997), Westfall, M. V. and Borton, A. R. (2003)), in 7-20 myocytes from 3-4 rats for each peptide concentration, bis-1, and media.

[2] = tested on: isolated adult rat cardiac myocytes; format: cell-based; settings: peptides at 10^−8M or 10^−7M; peak shortening, departure and return velocity
Description: Adult rat and rabbit ventricular cardiac myocytes were isolated as previously described (Westfall, M. V. Et al. (1997), Westfall, M. V. and Borton, A. R. (2003)). Hearts from Sprague-Dawley rats and New Zealand white rabbits were perfused and enzymatically digested to isolate myocytes; the protocol was approved by The University of Michigan University Committee on Use and Care of Animals (UCUCA) in accordance with university and federal regulatory guidelines. Aliquots of isolated ventricular myocytes were plated on laminin-coated glass coverslips in serum-containing Dulbecco's Modified Eagle Media (Invitrogen, CA, US) supplemented with 5% fetal bovine serum, and 50 U/ml penicillin and 50 μg/ml streptomycin (pen/strep; Sigma-Aldrich, MO, US). Two hours later, media was replaced with serum-free M199 (Invitrogen) supplemented with 1.8 mM Ca^2+, 10 mM HEPES, 10 mM glutathione, and pen/strep. Rat myocytes were transferred to a stimulation chamber and electrically paced the day after isolation (Zornik, E. Et al. (1999), Westfall, M. V. Et al. (1997)). Media was changed daily for all myocyte preparations.
Sarcomere shortening was detected using a video-based detection system (IonOptix, MA, USA) as described earlier (Westfall, M. V. and Borton, A. R. (2003)). Rat myocytes were paced at 0.2 Hz and rabbit myocytes were paced at 0.5 Hz or 1.0 Hz for these studies. Recordings were made prior to application of each peptide concentration, the protein kinase C (PKC) inhibitor bisindolylmaleimide-1, (bis-1; CalBiochem/EMD, NJ, US), or media only (control, C) and at 1, 3, 5, 10 and 15 minutes after application of peptide, bis-1, or media. Signal averaged data were analyzed to determine resting sarcomere length, shortening amplitude (peak shortening), shortening rate (departure velocity), and re-lengthening rate (return velocity), as previously described (Westfall, M. V. Et al. (1997), Westfall, M. V. and Borton, A. R. (2003)), in 7-20 myocytes from 3-4 rats for each peptide concentration, bis-1, and media.

[3] = tested on: mouse heart; assay: Echocardiography in mice after tail-vein injection; format: in vivo
Experimental: Echocardiograms were performed as previously described (Boluyl, M. O. Et al. (2004)) according to the recommendations of the American Society of Echocardiography. All echocardiography was performed by one registered echocardiographer. Female C57BL/6 mice were weighed to accurately calculate the amount of peptide delivered per kilogram body weight (kg bw). Animal use for echocardiography was approved by The University of Michigan UCUCA in accordance with university and federal regulatory guidelines. Physiological saline or peptide was intravenously delivered via tail-vein injections to a total volume of 150 μl to achieve 5 μmols or 500 ηmols hRFRP-1/kg bw. Each animal was used only once for an injectant, either physiological saline or peptide (n=4-5). […] Heart rate along with left ventricular end-systolic and end-diastolic dimensions were measured from the two-dimensional sector scans obtained from the parasternal long axis and apical four chamber views using the conventions of the American Society of Echocardiography. […] Left ventricular volumes were measured at end systole (Vols) and end diastole (Vold) and used to calculate stroke volume (SV=Vold−Vols) and ejection fraction (EF %=endocardial SV/endocardial Vold×100). Cardiac output (CO=endocardial SV×heart rate) was calculated from stroke volume and heart rate. […]

Molecule | arrhythmic beats and after-contractions [1] | character relative to hRFRP-1 on myocyte contractile function (agonist, antagonist, reverse agonist; in words) [2] | effect on the hRFRP-1-induced decrease of contractile performance in vivo ([3]; given with hRFRP-1, tail-vein injection) | effect on cardiac function in vivo when applied alone (echocardiographic parameters) ([3]; tail-vein injection)
CSCC[C@H](N)C(=O)N1CCC[C@H]1C(=O)N[C@@H](Cc1cnc[nH]1)C(=O)N[C@@H](CO)C(=O)N[C@@H](Cc1ccccc1)C(=O)N[C@@H](C)C(=O)N[C@@H](CC(N)=O)C(=O)N[C@@H](CC(C)C)C(=O)N1CCC[C@H]1C(=O)N[C@@H](CC(C)C)C(=O)N[C@@H](CCCNC(=N)N)C(=O)N[C@@H](Cc1ccccc1)C(N)=O [hRFRP-1] (H-MPHSFANLPLRF-NH2) | not observed |  |  | 
LPLAFamide (LPLAF-NH2) |  | hRFRP-1 antagonist | blocked the effects of hRFRP-1 | slight increase in cardiac function; also recorded: enhances cardiac function
